Measurements published in patent US5968923A, “(Azetidin-1-ylalkyl) lactams as tachykinin antagonists” (Pfizer Inc., priority 1994, dated 1999).

Assays:
NK2 receptor = molecular target: T1, NK2 receptor (Oryctolagus cuniculus, UniProt P79218); test: Antagonism of the contractile effects of [βAla^8 ] NKA(4-10) in the rabbit pulmonary artery (Method B); type: cell-based; details: agonist [βAla^8 ] NKA(4-10); for Kb: read-out: METHOD B (pA2) (converted)
T1 construct: antagonise the contractile effects of [βAla^8 ]; NKA(4-10) in the rabbit pulmonary artery; from tissue; host or cells: rabbit pulmonary artery
T1 sequence (P79218 1-384): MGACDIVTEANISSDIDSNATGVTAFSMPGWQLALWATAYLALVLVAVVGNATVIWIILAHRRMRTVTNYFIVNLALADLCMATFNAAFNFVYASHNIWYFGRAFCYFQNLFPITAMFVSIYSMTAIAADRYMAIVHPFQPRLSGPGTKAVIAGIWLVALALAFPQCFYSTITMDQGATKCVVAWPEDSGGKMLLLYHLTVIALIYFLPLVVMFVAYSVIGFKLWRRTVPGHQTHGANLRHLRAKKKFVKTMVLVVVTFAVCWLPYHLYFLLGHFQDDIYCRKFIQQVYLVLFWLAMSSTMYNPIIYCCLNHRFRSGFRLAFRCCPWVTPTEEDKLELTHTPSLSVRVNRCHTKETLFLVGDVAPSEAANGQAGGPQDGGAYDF
Description: The NK2 receptor antagonist activity of the compounds of the formula (I) can be tested, in vitro, by testing their ability to antagonise the contractile effects of the selective NK2 receptor agonist [βAla^8 ]NKA(4-10) in the rabbit pulmonary artery, using the method of Patacchini and Maggi, Eur. J. Pharmacol., 236, 31-37 (1993).
(§1) A representative selection of the compounds of the Examples were tested in vitro for their affinity to the human NK2 receptor by testing their ability to compete with [^125 I] NKA for binding to membranes prepared from Chinese hamster ovary cells expressing the cloned human NK2 receptor (Method A) and for their ability to antagonise the contractile effects of [βAla^8 ] NKA(4-10) in the rabbit pulmonary artery (Method B) by the methods described on pages 40 and 41 of the specification.

human NK2 receptor = molecular target: T2, human NK2 receptor (Homo sapiens, UniProt P21452); test: Competition with [^125 I] NKA for binding to membranes from Chinese hamster ovary cells expressing the cloned human NK2 receptor (Method A); details: Chinese hamster ovary cell membranes; for IC50: read-out: METHOD A (pIC50) (converted)
T2 construct: expressed in transfected cells; host or cells: Chinese hamster ovary (CHO) cells, membranes
T2 sequence (P21452 1-398): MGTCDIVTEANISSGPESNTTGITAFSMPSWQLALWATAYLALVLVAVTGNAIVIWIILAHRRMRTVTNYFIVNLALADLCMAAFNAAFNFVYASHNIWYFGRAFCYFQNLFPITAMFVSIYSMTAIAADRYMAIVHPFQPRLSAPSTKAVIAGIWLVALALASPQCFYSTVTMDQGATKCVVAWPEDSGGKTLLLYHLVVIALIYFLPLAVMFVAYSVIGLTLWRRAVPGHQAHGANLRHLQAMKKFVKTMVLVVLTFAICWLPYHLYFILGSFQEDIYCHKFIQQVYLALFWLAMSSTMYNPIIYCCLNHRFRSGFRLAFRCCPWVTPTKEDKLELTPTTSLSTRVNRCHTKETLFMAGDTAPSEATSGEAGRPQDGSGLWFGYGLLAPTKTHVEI
Description: The affinity of the compounds of formula (I) and their salts for the human NK2 receptor can be tested in vitro by testing their ability to compete with [^3 H] or [^125 I]NKA (neurokinin A) for binding to membranes prepared from Chinese hamster ovary cells expressing the cloned human NK2 receptor. In this method, washed Chinese hamster ovary cell membranes are prepared as described for the previous method where IM9 cells are used instead. The membranes are incubated (90 min, 25° C.) with [^3 H] NKA and with a range of concentrations of the test compound. Non-specific binding was determined in the presence of 10 μM NKA.
as §1

SMILES	Kb (NK2 receptor) [nM]	IC50 (human NK2 receptor) [nM]	METHOD B (pA2) (NK2 receptor)	METHOD A (pIC50) (human NK2 receptor)
CC1CCCCC1CN1CC(CCN2CC(N3CCOCC3)C2)(c2ccc(Cl)c(Cl)c2)CCC1=O (stereo not drawn) [Example 73]	1.26	0.316	–	–
CS(=O)(=O)N1CCN(C2CN(CCC3(c4ccc(Cl)cc4)CCC(=O)N(CC4CCCCC4)C3)C2)CC1 (stereo not drawn) [Example 89]	2.51	6.31	–	–
O=C1CCC(CCN2CC(N3CC[S+]([O-])CC3)C2)(c2ccc(F)c(F)c2)CN1Cc1ccccc1 (stereo not drawn) [Example 14]	12.6	63.1	–	–
O=C1CCC(CCN2CC(N3[C@@H]4CC[C@H]3C[C@@H](O)C4)C2)(c2ccc(Cl)c(Cl)c2)CN1Cc1ccccc1 (stereo partly drawn) [Example 104, 1-Benzyl-5-(3,4-dichlorophenyl)-5-(2-[3-(endo-3-hydroxy-8-azabicyolo[3,2,1]oct-8-yl)azetidin-1-yl]ethyl)-2-piperidone]	–	–	9.2	8.8
CC(c1ccccc1)N1CC(CCN2CC(N3CCOCC3)C2)(c2ccc(Cl)c(Cl)c2)CCC1=O (stereo not drawn) [Example 75 (enantiomeric pair A)]	0.794	5.01	–	–
O=C1CCC(CCN2CC(C(=O)N3CCCCC3)C2)(c2ccc(Cl)c(Cl)c2)CN1Cc1ccccc1 (stereo not drawn) [Example 31]	5.01	1	–	–
